The record followed here is ChEMBL document CHEMBL1129994, “Synthesis and transporter binding properties of 2,3-diphenyltropane stereoisomers. Comparison to 3beta-phenyltropane-2beta-carboxylic acid esters” (J Med Chem, 1997).

In assay [1] the target is Norepinephrine transporter (Rattus norvegicus, UniProt Q9WTR4). The experiment in a line: Inhibitory activity against Norepinephrine transporter using 0.5 nM [3H]-radioligand.
The target in assay [2] is Sodium-dependent dopamine transporter (Rattus norvegicus, UniProt P23977). The experiment in a line: Inhibitory activity against Dopamine transporter using 0.5 nM [3H]WIN-35428 as radioligand.
For assay [3], the target named is Sodium-dependent serotonin transporter (Rattus norvegicus, UniProt P31652). Put plainly: Inhibitory activity against Serotonin transporter using 0.2 nM [3H]paroxetine as radioligand.
Chain of Sodium-dependent serotonin transporter (P31652 whole entry): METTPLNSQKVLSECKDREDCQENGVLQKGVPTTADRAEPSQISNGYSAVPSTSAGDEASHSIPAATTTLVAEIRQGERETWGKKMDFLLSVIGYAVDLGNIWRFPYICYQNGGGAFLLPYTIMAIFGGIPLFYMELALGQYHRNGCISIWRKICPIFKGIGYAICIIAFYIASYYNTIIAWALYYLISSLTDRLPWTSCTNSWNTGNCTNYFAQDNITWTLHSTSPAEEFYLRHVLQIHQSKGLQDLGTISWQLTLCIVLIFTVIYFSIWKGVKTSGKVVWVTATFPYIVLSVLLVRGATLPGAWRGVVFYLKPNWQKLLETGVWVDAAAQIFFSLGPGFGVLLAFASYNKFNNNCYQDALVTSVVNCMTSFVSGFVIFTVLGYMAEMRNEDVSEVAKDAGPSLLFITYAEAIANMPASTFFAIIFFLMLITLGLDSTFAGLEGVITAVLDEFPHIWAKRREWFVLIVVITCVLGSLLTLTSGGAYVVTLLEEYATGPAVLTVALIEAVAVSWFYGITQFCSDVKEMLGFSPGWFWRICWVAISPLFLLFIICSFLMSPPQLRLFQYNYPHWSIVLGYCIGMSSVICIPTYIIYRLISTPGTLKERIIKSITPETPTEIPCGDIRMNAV

Chain of Sodium-dependent dopamine transporter (P23977 whole entry): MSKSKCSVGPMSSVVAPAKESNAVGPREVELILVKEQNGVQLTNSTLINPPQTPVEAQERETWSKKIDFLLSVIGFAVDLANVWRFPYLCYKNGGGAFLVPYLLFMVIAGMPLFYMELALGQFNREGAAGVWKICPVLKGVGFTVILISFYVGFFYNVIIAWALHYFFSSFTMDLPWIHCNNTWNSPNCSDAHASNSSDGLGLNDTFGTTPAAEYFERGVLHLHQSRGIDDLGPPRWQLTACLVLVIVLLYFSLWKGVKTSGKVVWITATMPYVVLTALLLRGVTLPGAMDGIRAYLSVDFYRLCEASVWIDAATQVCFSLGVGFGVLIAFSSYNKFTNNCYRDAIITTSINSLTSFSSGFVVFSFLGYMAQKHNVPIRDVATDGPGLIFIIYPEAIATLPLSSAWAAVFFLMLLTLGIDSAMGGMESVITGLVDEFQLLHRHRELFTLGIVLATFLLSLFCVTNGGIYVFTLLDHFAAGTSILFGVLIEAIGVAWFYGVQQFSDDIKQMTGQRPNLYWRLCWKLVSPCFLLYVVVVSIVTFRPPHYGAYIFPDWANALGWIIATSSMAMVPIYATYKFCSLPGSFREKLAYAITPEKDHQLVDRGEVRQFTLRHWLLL
Chain of Norepinephrine transporter (Q9WTR4 whole entry): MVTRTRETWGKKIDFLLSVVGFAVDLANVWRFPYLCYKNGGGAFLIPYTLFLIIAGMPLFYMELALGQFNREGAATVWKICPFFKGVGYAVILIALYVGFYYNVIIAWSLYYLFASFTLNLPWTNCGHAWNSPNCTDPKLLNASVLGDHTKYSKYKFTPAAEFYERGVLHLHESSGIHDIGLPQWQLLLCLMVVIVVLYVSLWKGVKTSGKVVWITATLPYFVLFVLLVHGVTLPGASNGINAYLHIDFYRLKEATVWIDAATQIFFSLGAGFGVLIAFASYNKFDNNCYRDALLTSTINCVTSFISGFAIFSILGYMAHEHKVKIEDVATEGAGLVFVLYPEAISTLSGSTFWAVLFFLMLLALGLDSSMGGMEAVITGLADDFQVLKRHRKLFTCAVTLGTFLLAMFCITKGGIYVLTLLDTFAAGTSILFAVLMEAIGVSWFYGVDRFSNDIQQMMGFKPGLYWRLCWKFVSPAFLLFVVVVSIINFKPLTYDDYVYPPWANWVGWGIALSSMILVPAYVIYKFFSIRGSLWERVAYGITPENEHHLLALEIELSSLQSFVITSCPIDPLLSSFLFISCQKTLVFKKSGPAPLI

As to `CN1C2CCC1C(c1ccccc1)=C(c1ccccc1)C2` (racemic), the IC50 in assay [1] is 21.4 µM; in assay [2], 0.55 µM; in assay [3] it was 47.8 µM.
In the case of `CN1[C@@H]2CC[C@@H]1C(O)(c1ccccc1)C(c1ccccc1)C2` (mixture of isomers), the IC50 is greater than 175 µM in assay [1], 2.86 µM in assay [2] and 37.2 µM in assay [3].
In the case of `CN1[C@@H]2CC[C@H]1[C@H](c1ccccc1)[C@H](c1ccccc1)C2` (racemic), the figures for the IC50 in assay [1] and in assay [3] were 2.77 µM and 18.6 µM, respectively.
With `CN1[C@@H]2CC[C@H]1[C@@H](c1ccccc1)[C@@H](c1ccccc1)C2` (racemic), the results for the IC50 in assay [1], in assay [2] and in assay [3] were 2.67 µM, 0.028 µM and 34.7 µM, respectively.

One may read the IC50 as the midpoint of a concentration-inhibition curve. Read a high IC50 as a need for much substance.
